Reference: US11351164B2, “Inhibitors of indoleamine 2,3-dioxygenase and methods of their use” (BRISTOL-MYERS SQUIBB COMPANY, priority 2016, dated 2022)
pIC50: −log10 of the molar value.

Molecular target: T1, human IDO1 (Homo sapiens, UniProt P14902)
T1 construct: expressed in transfected cells
Experiment: IDO inhibition assay in HEK293 cells stably expressing human IDO1 (kynurenine, Ehrlich reagent, absorbance 490 nm)
Assay type: cell-based
Conditions: 20 hours incubation, read-out: IDO1 HEK Human IC50
Experimental: HEK293 cells were transfected with a pCDNA-based mammalian expression vector harboring human IDO1 cDNA (NM 002164.2) by electroporation. They were cultured in medium (DMEM with 10% FBS) containing 1 mg/ml G418 for two weeks. Clones of HEK293 cells that stably expressed human IDO1 protein were selected and expanded for IDO inhibition assay. The human IDO1/HEK293 cells were seeded at 10,000 cells per 50 μL per well with RPMI/phenol red free media contains 10% FBS in a 384-well black wall clear bottom tissue culture plate (Matrix Technologies LLC) 100 nL of certain concentration of compound was then added to each well using ECHO liquid handling systems. The cells were incubated for 20 hours in 37° C. incubator with 5% CO2. The compound treatments were stopped by adding trichloroacetic acid (Sigma-Aldrich) to a final concentration at 0.2%. The cell plate was further incubated at 50° C. for 30 minute. The equal volume supernatant ([…]) and 0.2% (w/v) Ehrlich reagent (4-dimethylaminobenzaldehyde, Sigma-Aldrich) in glacial acetic acid were mixed in a new clear bottom 384-well plate. This plate was then incubated at room temperature for 30 minute. The absorbance at 490 nm was measured on Envision plate reader. Compound IC50 values were calculated using the counts of 500 nM of a reference standard treatment as one hundred percent inhibition, and counts of no compound but DMSO treatment as zero percent inhibition.

T1 sequence (P14902 whole entry): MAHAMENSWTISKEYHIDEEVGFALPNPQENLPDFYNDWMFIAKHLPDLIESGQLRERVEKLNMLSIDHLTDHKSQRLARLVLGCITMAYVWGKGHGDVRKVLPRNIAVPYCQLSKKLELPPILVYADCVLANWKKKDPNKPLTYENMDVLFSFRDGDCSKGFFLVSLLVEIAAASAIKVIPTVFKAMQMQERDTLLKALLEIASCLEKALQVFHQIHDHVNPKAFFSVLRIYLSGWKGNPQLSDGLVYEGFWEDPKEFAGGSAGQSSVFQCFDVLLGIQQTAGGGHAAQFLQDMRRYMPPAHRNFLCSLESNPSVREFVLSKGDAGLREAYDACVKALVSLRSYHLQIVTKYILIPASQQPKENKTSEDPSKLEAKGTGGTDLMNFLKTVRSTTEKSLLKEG

Row | pIC50 | Structure (SMILES)
1 | 6.84 | CCC(c1nnc(-c2ccc(OC(C)C)cc2)[nH]1)C1CCC(c2ccnc3ccc(F)cc23)CC1 (stereo not drawn) [Example 53, 6-Fluoro-4-(4-(1-(5-(4-isopropoxyphenyl)-4H-1,2,4-triazol-3-yl)propyl)cyclohexyl)quinoline]
2 | 6.91 | CCC(Nc1nnc(-c2ccc(OC)cc2)o1)C1CCC(c2ccnc3ccc(F)cc23)CC1 (stereo not drawn) [Example 50, N-(1-((1r,4r)-4-(6-Fluoroquinolin-4-yl)cyclohexyl)propyl)-5-(4-methoxyphenyl)-1,3,4-oxadiazol-2-amine]
3 | 6.74 | C[C@@H](c1ncc(-c2ccc(F)cc2)o1)[C@H]1CC[C@@H](c2ccnc3ccc(F)cc32)CC1 [Example 45, 5-(4-Fluorophenyl)-2-((R)-1-((1s,4S)-4-(6-fluoroquinolin-4-yl)cyclohexyl)ethyl)oxazole]
4 | 6.14 | COc1ccc(-c2csc(N[C@H](C)[C@H]3CC[C@@H](c4ccnc5ccc(F)cc54)CC3)n2)cc1 [Example 36, N—((R)-1-((1s,4S)-4-(6-Fluoroquinolin-4-yl)cyclohexyl)ethyl)-4-(4-methoxyphenyl)thiazol-2-amine]
5 | 7.21 | COc1ccc(-c2nnc(N[C@H](C)[C@H]3CC[C@@H](c4ccnc5ccc(F)cc54)CC3)s2)cc1 [Example 26, N—((R)-1-((1s,4S)-4-(6-Fluoroquinolin-4-yl)cyclohexyl)ethyl)-5-(4-methoxyphenyl)-1,3,4-thiadiazol-2-amine]
6 | 5.70 | CCC(c1nnc(Nc2ccc(OC)cc2)[nH]1)C1CCC(c2ccnc3ccc(F)cc23)CC1 (single isomer, unassigned) [Example 55, 5-(1-(4-(6-Fluoroquinolin-4-yl)cyclohexyl)propyl)-N-(4-methoxyphenyl)-4H-1,2,4-triazol-3-amine]
7 | 6.09 | CCC(Nc1nnc(-c2ccc(F)cc2)o1)C1CCC(c2ccnc3ccc(C(F)(F)F)cc23)CC1 (single isomer, unassigned) [Example 61, 5-(4-fluorophenyl)-N-(1-((1s,4s)-4-(6-(trifluoromethyl)quinolin-4-yl)cyclohexyl)propyl)-1,3,4-oxadiazol-2-amine]
8 | 6.48 | CCOCC(Nc1nnc(-c2ccc(OC)cc2)o1)[C@H]1CC[C@@H](c2ccnc(F)c2C)CC1 (single isomer, unassigned) [Example 57-2, N-(2-Ethoxy-1-((1s,4s)-4-(2-fluoro-3-methylpyridin-4-yl)cyclohexyl)ethyl)-5-(4-methoxyphenyl)-1,3,4-oxadiazol-2-amine]
9 | 6.13 | Cc1ccc(-c2nnc([C@H](C)[C@H]3CC[C@@H](c4ccnc5ccc(F)cc54)CC3)[nH]2)cc1F [Example 10, 6-fluoro-4-((1S,4s)-4-((R)-1-(5-(3-fluoro-4-methylphenyl)-4H-1,2,4-triazol-3-yl)ethyl)cyclohexyl)quinoline]
10 | 8.46 | Cc1csc(-c2nnc(N[C@H](C)[C@H]3CC[C@@H](c4ccnc5ccc(F)cc54)CC3)o2)n1 [Example 32, N-((R)-1-((1s,4S)-4-(6-fluoroquinolin-4-yl)cyclohexyl)ethyl)-5-(4-methylthiazol-2-yl)-1,3,4-oxadiazol-2-amine]
11 | 7.17 | C[C@@H](c1nnc(Nc2ccc(F)cc2)[nH]1)[C@H]1CC[C@@H](c2ccnc3ccc(F)cc32)CC1 [Example 21, N-(4-Fluorophenyl)-5-((R)-1-((1s,4s)-4-(6-fluoroquinolin-4-yl)cyclohexyl)ethyl)-4H-1,2,4-triazol-3-amine]
12 | 9.05 | CCC(Nc1nnc(-c2ccc(OC)cc2)o1)[C@H]1CC[C@@H](c2ccnc3ccc(F)cc32)CC1 (single isomer, unassigned) [Example 49-1, N-(1-((1s,4s)-4-(6-Fluoroquinolin-4-yl)cyclohexyl)propyl)-5-(4-methoxyphenyl)-1,3,4-oxadiazol-2-amine]
